Experimental data as given in patent publication US10780094B2, “Use of carbonic anhydrase inhibitors for treatment of neurological and psychiatric disorders” (New York University, priority 2016, dated 2020).

Columns and labels:
M059K Glioma cells = assay: Cell Death ELISAplus, Aβ-induced apoptosis (fragmented nucleosomes); type: cell-based, human; settings: for apoptosis in response to Aβ: Example 2, glial cells, FIG. 17C
Description: The extent of apoptosis caused by Aβ in the presence or absence of MTZ was assessed by quantitation of nucleosome formation using Cell Death ELISA^plus (Roche Applied Science, Indianapolis, Ind.). Briefly, after incubation with the peptides, plates were centrifuged in a Beckman J-6B centrifuge (10 min; 1,000 rpm), cells lysed, and DNA-histone complexes (nucleosomes) quantitated by Cell Death ELISA, as previously described (Fossati et al., 2010).

hCMEC/D3 cells (D3) = assay: Cell Death ELISAplus, Aβ-induced apoptosis; type: cell-based, human; settings: Example 2/3; Aβ40-Q22 challenge; FIG. 17B, 21
Description: 20.000 cells per well were plated on 24-wells plates. The day after, cells were treated with peptides and/or drugs, following the experimental conditions.
20,000 cells per well were plated on 24-wells plates. The day after, cells were treated with peptides and/or drugs, following the experimental conditions.

[1] = tested on: caspase 9 in SH-SY5Y neuronal cells; assay: Caspase-Glo 9 activity after Aβ challenge; type: cell-based, human; settings: for caspase 9 activation: Example 2/3, FIG. 16C, 22
Description: Caspase 9 and caspase 3/7 activation was measured by luminescent assays (Caspase-Glo 9 and caspase-Glo 3/7, Promega, Madison, Wis.), in cells treated with the Aβ peptides in DMEM without FBS. Briefly, 10,000 cells/well were plated in 96 wells plates and incubated for 24 hours with the freshly solubilized Aβ peptides. Caspase-Glo reagent was added to the cell cultures resulting in cell lysis, followed by caspase cleavage of the substrate and generation of a luminescent signal produced by the luciferase reaction. After 40 minutes incubation, the amount of caspase activity was evaluated in a plate-reading luminometer (Synergy HT Multi-Mode Microplate Reader, Biotek, Winooski, Vt.) as described in (Fossati et al., 2012b). To inhibit non-specific background activity, the proteasome inhibitor MG-132 was added to the Caspase-Glo reagent before the experiment as indicated by the manufacturer. In all cases results are expressed as fold-change compared to untreated control cells.
Cells were plated at a confluence of 10.000 cells per well in 96-wells microplate luminescence microtiter (ThermoFisher, Waltham, Mass., US). The day after, cells were treated with the peptides and/or drugs for the experimental times. After that, caspase-Glo 9 assay was performed, following the protocol provided from the manufacturer. Luminescence was measured using a FlexStation 3 Multi-Mode Microplate Reader (Molecular devices, Sunnyvalem Calif., US).

[2] = tested on: D3 cerebral microvascular endothelial cells; assay: TMRM assay of mitochondrial membrane potential (ΔΨ); type: cell-based, human; settings: for ΔΨ after pre-aggregated Aβ: any of the used concentrations, 45 minutes
Description: (§1) Briefly, cells were plated on 25 mm optical borosilicate poly-L-lysine-coated sterile glass covers (ThermoFisher, Waltham, Mass., US) at a 70% confluence. The day after, cells were washed twice with HBSS and charged with 600 nM TMRM on HBSS. Cells were then incubated for 20 min in the incubator, at 37° C. and washed again with HBSS. After that, the medium was replaced by HBSS containing 150 nM of tetramethylrhodamine methyl ester (TMRM), in order to maintain the equilibrium distribution of the fluorophore. Cells were then mounted on Sykes-Moores chambers (BellCo, Vineland, N.J., US) and treated with the different drugs and/or peptides. An image was taken at minute 0 and at minute 45, after adding the drugs and/or peptides. In this experiment, the peptide was pre-aggregated as above before adding it to the cells.

SH-SY5Y neuronal cells = assay: as above; type: cell-based, human; settings: for ΔΨ after pre-aggregated Aβ: any of the used concentrations, 45 minutes
Description: as §1

D3 cells = assay: ATP measurement (CellTiter-Glo); type: cell-based, human; settings: co-treatment with the peptide; 3 hours
Description: (§2) Steady state levels of ATP were estimated using the Cell Titter-Glo, according to manufacturer's instructions. Briefly, 5×10^3 cells per well of both D3 and SHSY cells were plated on 96-wells plates. The day after, cells were treated with either 10 μM Q22 or 50 μM Ab42 peptides, respectively. Peptides were added alone or in combination with increasing concentrations of MTZ (100 and 300 μM) or AZT (30 and 300 μM). Controls were treated with either DMSO or 5 μM oligomycin. After 3 hours of treatment, the plates containing the cells were equilibrated to room temperature for 30 minutes prior to addition of the luciferin/luciferase/cell lysis mixture. Absolute luminescence from quadruplicate experiments was recorded using a SpectraMax plate reader (Molecular Devices, Sunnyvalem Calif., US).

SH-SY5Y cells = assay: ATP measurement (CellTiter-Glo); type: cell-based, human; settings: drug in combination with the peptide; 3 hours
Description: as §2

TgSwDI mice = type: in vivo; settings: given with diet
Description: The grip strength test was used to measure neuromuscular function and specifically assesses maximal muscle/grip force of the forelimbs (only) or both the fore and hind limbs combined. Motor performance was assessed by the horizontal grasping force applied by the rodent to a specialized stainless steel grid that is connected to a sensitive, electronic force sensor (Bioseb In Vivo Research Instruments). […] With the base of the tail held gently but firmly between thumb and forefinger, the mouse was pulled gently back away from the grid, ensuring that the torso remains horizontal, until the animal loses grip of the grid. For combined fore and hindlimb measurement, the procedure was identical to the forelimb-only procedure except that mouse was lowered to allow both fore and hind paws to attach to the grid before any measurements were taken. […]
To ensure maximal reliability, each measurement of interest (e.g., forelimb or combined) was repeated consecutively for each mouse to obtain 5-6 replicates. […] A truncated mean (mean of replicates after the smallest and largest readings were removed) was calculated for each subject. […]
Mice in each treatment group (WT, Tg, Tg+MTZ, Tg+ATZ) were counted before the beginning of the treatment, at month 2, and at sacrifice (month 16). […]

[3] = ATZ 10 μM added to the peptides

| Compound | apoptosis in response to Aβ (M059K Glioma cells) | apoptosis in response to Aβ (hCMEC/D3 cells (D3)) | caspase 9 activation [1] | loss of ΔΨ [2, 3] | ΔΨ after pre-aggregated Aβ [2] | loss of ΔΨ (SH-SY5Y neuronal cells; [3]) | ΔΨ after pre-aggregated Aβ (SH-SY5Y neuronal cells) | Q22-induced increase in steady state ATP levels (D3 cells) | ATP levels under Aβ challenge (SH-SY5Y cells) | signs of toxicity, weight loss or death (TgSwDI mice) | apoptotic phenotype caused by the Aβ peptides (M059K Glioma cells; 100 μM MTZ, Aβ42 10 μM or Aβ40-Q22 50 μM, 3 days) | Aβ-mediated increase in fragmented nucleosomes (M059K Glioma cells; 300 μM MTZ, Aβ42 10 μM or Aβ40-Q22 50 μM, 3 days) | caspase 9 over-activation ([1]; 100 or 300 μM MTZ, 10 μM Aβ42, 24 hours) | caspase 9 activity, drug alone ([1]; MTZ alone in absence of Aβ) |
| --- | --- | --- | --- | --- | --- | --- | --- | --- | --- | --- | --- | --- | --- | --- |
| CC(=O)Nc1nnc(S(N)(=O)=O)s1 [ATZ, acetazolamide] | prevented | prevented | protective effect | prevent loss of ΔΨ | rescue ΔΨ to values similar to those observed under control conditions | prevent loss of ΔΨ | rescue ΔΨ to values similar to those observed under control conditions | unaffected | remained unchanged | without showing signs of toxicity, weight loss or increased death of the animals | – | – | – | – |
| CC(=O)/N=c1/sc(S(N)(=O)=O)nn1C [MTZ, methazolamide] | prevented | prevented | protective effect | – | rescue ΔΨ to values similar to those observed under control conditions | – | rescue ΔΨ to values similar to those observed under control conditions | unaffected | remained unchanged | without showing signs of toxicity, weight loss or increased death of the animals | completely reverted the apoptotic phenotype | completely prevented | completely inhibited | did not have any effect |
